Where two headings read alike, the source gives them in different places.
How the values were obtained:
human A3 receptors = target: T1, human A3 receptors (Homo sapiens, UniProt P0DMS8); test: Adenosine receptor binding assay ([3H]HEMADO competition); settings: Cheng-Prusoff, read-out: hA3 Ki
T1 construct: expressed in transfected cells; host or cells: HEK-293 cells, stably transfected; membrane preparation
T1 sequence (P0DMS8 1-318): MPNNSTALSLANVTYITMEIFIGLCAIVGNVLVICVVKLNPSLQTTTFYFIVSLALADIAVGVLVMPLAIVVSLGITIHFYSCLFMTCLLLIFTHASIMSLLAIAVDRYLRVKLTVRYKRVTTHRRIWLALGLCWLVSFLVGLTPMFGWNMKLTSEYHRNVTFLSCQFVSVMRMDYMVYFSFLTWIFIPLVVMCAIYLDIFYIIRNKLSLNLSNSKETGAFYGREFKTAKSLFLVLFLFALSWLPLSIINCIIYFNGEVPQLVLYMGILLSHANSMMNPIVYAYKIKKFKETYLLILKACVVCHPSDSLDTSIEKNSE
Excerpt: Materials and Reference Compounds: [^3H] HEMADO (obtained from (ARC, Cat: ART1456) and [3H] DPCPX (obtained from PerkinElmer Cat no. NET974250UC)). IB-MECA was obtained from Tocris (Bristol, UK) and N6-cyclopentyl adenosine (CPA) is obtained from Sigma-Alrich (Poole, UK). Cell culture media, G418 and hygromycin are obtained from Invitrogen (Paisley, UK). Fetal calf serum is obtained from Perbio Science (Cheshire, UK). All other reagents are obtained from Fisher Chemicals (Loughborough, UK).
The method followed is that of Yates L, Clark J H, Martin T J, James S, Broadley K J, Kidd E J. Radioligand binding and functional responses of ligands for human recombinant adenosine A3 receptors. Auton Autacoid Pharmacol. 2006; 26 (2): 191-200. Cells stably transfected with the human adenosine A3 or A1 receptor are grown in Dulbecco's modified Eagles medium with nutrient mixture F12 containing NaHCO3 and Glutamax. Media is supplemented with 10% fetal calf serum, geneticin (G418; 0.67 mg/mL), hygromycin (500 μg/mL) and adenosine deaminase (1 U/mL). Cells are maintained at 37° C. with 5% CO2 in air. Cells are harvested and homogenized in ice-cold Tris buffer [50 mM Tris, 150 mM NaCl, 1 mM ethylenediaminetetraacetic acid (EDTA), pH 7.4] supplemented with the peptidase inhibitors, 4-(2-aminoethyl)benzene sulfonylfluoride (1 mM) and bacitracin (0.1 mg/mL), using a Polytron homogenizer (3×10 s bursts). The homogenate is spun for 10 min (4° C.) at 500 g. The supernatant is retained and the pellet is re-suspended in the buffer, homogenized and spun as above. The combined supernatants are centrifuged for 15 min (4° C.) at 48,000 g. The resultant pellet is re-suspended in the buffer and centrifuged for a second time at 48,000 g. The membrane pellet is then suspended in Tris buffer containing no peptidase inhibitors or adenosine deaminase and stored at −80° C. at a protein concentration of 1 mg/mL.
Binding Assays: Radioligand-binding assays are performed using the adenosine A3 receptor agonist [^3H] HEMADO and the A1 receptor […] [^3H] DPCPX. Binding assays are conducted in a total volume of 100 μL containing a 50 mM Tris, pH 7.4 buffer with or without 10 mM MgCl2, 20 μg membranes and either 4.154 nM [3H] HEMADO (for the A3 receptor) or 1.6065 nM [^3H] DPCPX (for the A1 receptor). Assays are conducted at room temperature for 60 min (A1 receptor) or 120 min (A3 receptor) and terminated by the addition of 2 ml of ice-coldish buffer (50 mM Tris, pH 7.4 with or without 10 mM MgCl2) and rapid filtration over 0.03% polyethylenimine-treated Whatman GF/C filters using a Brandel cell harvester (Semat International Ltd., St Albans, UK). Filters are then ished three times with 2 ml of ice-cold buffer. The filter-bound radioactivity are counted using a Compugamma counter (LKB Wallac, Turku, Finland). Competition experiments are performed to investigate the ability of reference compounds and embodiments of the invention to inhibit [^3H] HEMADO binding. Non-specific binding are determined using the respective compound at its highest concentration.
Data Analysis: The Kd and Bmax values for binding data are calculated based upon the molar amounts of bound and free [^3H] HEMADO. […] IC50 and Ki values and Hill slopes for inhibition of the radioligand binding by the compounds of the invention are calculated from the ligand competition curves using the Excel spreadsheet and the Kd value calculated for either [^3H] HEMADO or [^3H] DPCPX. The results are expressed as a percent of control specific binding and as a percent inhibition of control specific binding obtained in the presence of the compounds of the invention. The IC50 values (concentration causing a half-maximal inhibition of control specific binding) and Hill coefficients (nH) are determined by non-linear regression analysis of the competition curves generated with mean replicate values using Hill equation curve fitting: […]

[1] = target: T2, human adenosine A3 receptor (Homo sapiens, UniProt P0DMS8); test: Intracellular cAMP levels (inhibition of forskolin-stimulated cAMP production); assay type: cell-based; settings: for EC50: CHO-K1 cells expressing human adenosine A3 receptor, forskolin 10 μM; for cAMP Efficacy (%): maximal response as percentage of the response produced by 100 nM IB-MECA
T2 construct: expressed in transfected cells; host or cells: CHO-K1 cells, stably transfected
T2 sequence (P0DMS8 1-318): T1 sequence (P0DMS8 1-318)
Excerpt: The method followed is that published in Yates L, Clark J H, Martin T J, James S, Broadley K J, Kidd E J. Radioligand binding and functional responses of ligands for human recombinant adenosine A3 receptors. Auton Autacoid Pharmacol. 2006 April; 26 (2): 191-200.
Materials and Cell Culture: Adenosine deaminase is obtained from Roche (Lewes, UK). Forskolin is obtained from Sigma-Aldrich (Poole, UK). The sources of other materials are provided above in Example 1. CHO-K1 cells stably transfected with the human adenosine A3 receptor are grown in Dulbecco's modified Eagles medium with nutrient mixture F12 containing NaHCO3 and Glutamax. Media is supplemented with 10% fetal calf serum, geneticin (G418; 0.67 mg/mL), hygromycin (500 μg/mL) and adenosine deaminase (1 U/mL). Cells are maintained at 37° C. with 5% CO2 in air.
CAMP Measurements: Intracellular cAMP production is measured directly using a non-acetylation cAMP enzyme immunoassay (Amersham Biosciences, Little Chalfont, UK). Cultured CHO cells expressing human adenosine A3 receptors are allowed to plate overnight in 96-well plates in culture medium containing adenosine deaminase. Twenty-four hours later, they are incubated with adenosine analogues or compounds of the invention (0.1 nM-1 μM) for 5 min at 37° C., followed by incubation with forskolin (10 μM) for 10 min. The cells are then lysed with 200 μL of lysis reagent 1 provided with the kit for 10 min to release intracellular CAMP. Aliquots of the supernatants are then transferred to a 96-well microtitre plate coated with donkey anti-rabbit IgG; 100-μL cAMP standards (12.5-3200 fmol/well) are also added to the microtitre plate; 100 μL of rabbit anti-cAMP antibody is added to all wells and incubated at 2-5° C. for 2 h. The antiserum is made up in lysis reagent 2, which sequesters the key component in lysis reagent 1 and ensures that CAMP is free for subsequent analysis. Then 50 μL of cAMP peroxidase conjugate is added to all wells and left to incubate for 60 min at 2-5° C. to allow competition for the antibody between the un-labelled and horse radish peroxidase (HRP)-labelled cAMP. Wells are then ished with buffer and 150 μL of enzyme substrate containing 3,3′,5,5′-tetramethylbenzidine/hydrogen peroxide in 20% (v/v) dimethylformamide is added to each well and left to incubate for 60 min on a Titramax 100 microtitre plate shaker (Heidolph Instruments, Schwabach, Germany) at room temperature for color development. The reaction is stopped by the addition of 100 μL of 1 M sulfuric acid and the optical density (OD) read at 450 nm on a spectrophotometric MRX microplate reader (Dynex Technologies, Chantilly, VA, USA).
Analyses: Each sample/standard was analyzed in duplicate and the resulting OD values averaged. The percent bound (B/B0) for each standard and sample was calculated using the following relationship:
[formula] • where B is the specific OD for standard/sample and B0 is the specific OD for the zero standard. A standard curve was generated by plotting % B/B0 as a function of the log fmol cAMP standard per well. The fmol per well value for cAMP in each sample was then read from the graph. The results are expressed as a percent of control agonist response: (measured response/control response)*100 in the presence of the compounds of the invention. Concentration-response curves for inhibition of cAMP production were constructed for all compounds of the invention and reference compounds. The EC50 values (concentration producing a half-maximal response) were determined by non-linear regression analysis of the concentration-response curves generated with mean replicate values using Hill equation curve fitting, according to the equation:
[formula] • where Y=response, A=left asymptote of the curve, D=right asymptote of the curve, C=compound concentration, and C50=EC50, and nH=slope factor. […]

[2] = Table 2, membranes of HEK-293 cells expressing human A3 receptor
[3] = Table 2, # = average between two data points
[4] = Table 1, membranes of HEK-293 cells expressing human A3 receptor

CNC(=O)[C@@]12C[C@@H]1[C@@H](n1cnc3c4c(c(Cl)nc31)CC(C)N4)[C@H](O)[C@@H]2O (stereo partly drawn) [5A*]
Ki (human A3 receptors; [2]): 3.84 nM | EC50 [1, 3]: 0.82 nM | cAMP Efficacy (%) [1, 3]: 105.62%

Cn1nnc([C@@]23C[C@@H]2[C@@H](n2cnc4c5[nH]c(CO)cc5c(Cl)nc42)[C@H](O)[C@@H]3O)n1 [Compound 5B]
Ki (human A3 receptors; [4]): 2.83 nM | EC50 ([1]; Table 1): 3 nM | cAMP Efficacy (%) ([1]; Table 1): 34.29%

O[C@H]1[C@H](n2cnc3c4[nH]c(Cc5ccccc5)cc4c(Cl)nc32)[C@H]2CC2[C@H]1O (stereo partly drawn) [9A*]
Ki (human A3 receptors; [2]): 5.34 nM | EC50 [1, 3]: 2.15 nM | cAMP Efficacy (%) [1, 3]: 74.92%

O[C@H]1[C@H](n2cnc3c(NCC(F)F)cc(Cl)nc32)[C@H]2C[C@@]2(c2ncn[nH]2)[C@H]1O [Compound 14B]
Ki (human A3 receptors; [4]): 21.7 nM | EC50 ([1]; Table 1): 27.2 nM | cAMP Efficacy (%) ([1]; Table 1): 89.97%

CC1CCc2c(Cl)nc3c(ncn3[C@H]3[C@H](O)[C@H](O)C4C[C@@H]43)c2N1 (stereo partly drawn) [16A*]
Ki (human A3 receptors; [2]): 45.7 nM | EC50 [1, 3]: 5.36 nM | cAMP Efficacy (%) [1, 3]: 55.74%

Cn1nnc([C@@]23C[C@@H]2[C@@H](n2cnc4c5[nH]c(C(F)F)cc5c(Cl)nc42)[C@H](O)[C@@H]3O)n1 [Compound 1B]
Ki (human A3 receptors; [4]): 1.09 nM | EC50 ([1]; Table 1): 1 nM | cAMP Efficacy (%) ([1]; Table 1): 5%

Cc1cc2c(Cl)nc3c(ncn3[C@H]3[C@H](O)[C@H](O)[C@]4(C#N)C[C@H]34)c2[nH]1 [26A*]
Ki (human A3 receptors; [2]): 98 nM | EC50 [1, 3]: 100 nM | cAMP Efficacy (%) [1, 3]: 5%

CC1Cc2c(Cl)nc3c(ncn3[C@H]3[C@H](O)[C@H](O)C4C[C@@H]43)c2N1 (stereo partly drawn) [12A*]
Ki (human A3 receptors; [2]): 14.8 nM | EC50 [1, 3]: 11.4 nM | cAMP Efficacy (%) [1, 3]: 63.56%

CNC(=O)[C@@]12C[C@@H]1[C@@H](n1cnc3c4c(c(Cl)nc31)C(O)CC(C)N4)[C@H](O)[C@@H]2O (stereo partly drawn) [8A* and 8B*]
Ki (human A3 receptors; [2]): 5.84 nM | EC50 [1, 3]: 6 nM | cAMP Efficacy (%) [1, 3]: 107.96%

O[C@H]1[C@H](n2cnc3c(NCc4cc(Cl)ccc4Cl)cc(Cl)nc32)[C@H]2C[C@@]2(c2ncc[nH]2)[C@H]1O [Compound 9B]
Ki (human A3 receptors; [4]): 38.6 nM | EC50 ([1]; Table 1): 4.61 nM | cAMP Efficacy (%) ([1]; Table 1): 103.89%

Cc1cc2c(Cl)nc3c(ncn3[C@@H]3O[C@H](CO)[C@@H](O)[C@H]3O)c2[nH]1 [6A*]
Ki (human A3 receptors; [2]): 1.33 nM | EC50 [1, 3]: 0.38 nM | cAMP Efficacy (%) [1, 3]: 102.76%

Cc1cc2cnc3c(ncn3[C@H]3[C@H](O)[C@H](O)C4C[C@@H]43)c2[nH]1 (stereo partly drawn) [14A*]
Ki (human A3 receptors; [2]): 2.56 nM | EC50 [1, 3]: 2.03 nM | cAMP Efficacy (%) [1, 3]: 87.04%
